Read-outs that look alike come from different tables or passages of the source. Square brackets hold non-standard residues; d marks the D form. Peptide text beside a SMILES is read from it.
How the values were obtained:
Anxa1 = molecular target: T1, Anxa1 (Homo sapiens, UniProt P04083); assay: intermolecular interaction with Anxa1 measured by the QCM method; type: binding
T1 construct: human recombinant Anxa1 protein consisting of 346 amino acid residues; purchased ATGen Corporation (Seongnam-si, South Korea)
T1 sequence (P04083 1-346): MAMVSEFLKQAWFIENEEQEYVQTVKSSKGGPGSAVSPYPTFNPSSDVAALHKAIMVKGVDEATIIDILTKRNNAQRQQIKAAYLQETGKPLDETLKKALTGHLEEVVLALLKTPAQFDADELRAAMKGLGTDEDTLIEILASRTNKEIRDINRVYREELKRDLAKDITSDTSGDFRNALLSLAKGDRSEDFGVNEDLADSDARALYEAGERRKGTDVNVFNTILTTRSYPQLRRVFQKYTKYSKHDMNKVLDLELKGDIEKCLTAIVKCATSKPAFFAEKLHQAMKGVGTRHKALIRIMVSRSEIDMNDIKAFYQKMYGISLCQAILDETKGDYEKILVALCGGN
Description: As for the peptides of the sequences of LRFPTVL (SEQ ID NO: 13), SPTSLLF (SEQ ID NO: 14), MPTLTFR (SEQ ID NO: 15) and LLSWPSA (SEQ ID NO: 17) with high emergence frequency besides the TIT7 sequence (SEQ ID NO: 12) described in Example 1, similar to the dTIT7 peptide, peptides (dLRF7, dSPT7, dMPT7 and dLLS7 peptides) composed of D-form amino acids were synthesized and the intermolecular interaction with Anxa1 was measured for each of them by the following method.
The sensor chip was washed twice with piranha solution for 5 min and then immersed overnight in a solution of 0.9 mM hydroxy-EG3-undecanethiol (Dojindo) and 0.1 mM amino-EG6-undecanethiol (Dojindo). After washing with water, the chip was treated with 1 mM GMBS (Dojindo) and incubated at room temperature for 1 hr. After washing away the remaining GMBS, 1 mM peptide solution was added onto the chip and the chip was incubated for 30 min. The peptide-bound sensor chip was placed in a QCM apparatus (Single-Q, ASONE), and 0.5 ml of PBS was added to the well. Various doses of Anxa1 were injected into the reaction chamber and the binding affinity (kd value) for each peptide was determined.

[1] = solubility and stability of IF7 (dosage form observations); type: physicochemical
Description: That is, IF7 peptide is protease sensitive and is susceptible to degradation. Indeed, in an experiment including intravenous administration of A488-IF7 to healthy mouse, the fluorescence signal of peripheral blood almost disappeared in about 1 hour (FIG. 5). […] In addition, IF7 has high hydrophobicity and causes difficulty in dosage form such as the need for addition of a surfactant after dissolution in DMSO, in an attempt to avoid precipitation when a compound bound with an anticancer drug is intravenously administered.

[2] = QCM, peptide-bound sensor chip, various doses of Anxa1, read-out: kd value

Structure (SMILES) | Kd (Anxa1; [2]) [µM] | other results
CSCC[C@@H](N)C(=O)N1CCC[C@@H]1C(=O)N[C@@H](C(=O)N[C@H](CC(C)C)C(=O)N[C@@H](C(=O)N[C@H](Cc1ccccc1)C(=O)N[C@H](CCCNC(=N)N)C(=O)O)[C@H](C)O)[C@H](C)O [dMPT7, M[D] P[D] T[D] L[D] T[D] F[D] R[D]] (H-[dM][dP][dT][dL][dT][dF][dR]-OH; N-terminus and C-terminus assumed) | 0.298 | –
CC(C)C[C@@H](N)C(=O)N[C@H](CCCNC(=N)N)C(=O)N[C@H](Cc1ccccc1)C(=O)N1CCC[C@@H]1C(=O)N[C@@H](C(=O)N[C@@H](C(=O)N[C@H](CC(C)C)C(=O)O)C(C)C)[C@H](C)O [dLRF7, L[D] R[D] F[D] P[D] T[D] V[D] L[D]] (H-[dL][dR][dF][dP][dT][dV][dL]-OH; N-terminus and C-terminus assumed) | 0.0312 | –
CC(C)C[C@@H](NC(=O)[C@@H](CC(C)C)NC(=O)[C@@H](CO)NC(=O)[C@H](NC(=O)[C@H]1CCCN1C(=O)[C@H](N)CO)[C@H](C)O)C(=O)N[C@H](Cc1ccccc1)C(=O)O [dSPT7, S[D] P[D] T[D] S[D] L[D] L[D] F[D]] (H-[dS][dP][dT][dS][dL][dL][dF]-OH; N-terminus and C-terminus assumed) | 0.0903 | –
CC[C@@H](C)[C@@H](NC(=O)[C@H](N)[C@H](C)O)C(=O)N[C@@H](C(=O)N[C@H](Cc1c[nH]c2ccccc12)C(=O)N1CCC[C@@H]1C(=O)N[C@@H](C(=O)N[C@H](CCSC)C(=O)O)[C@H](C)O)[C@H](C)O [dTIT7, T[D] I[D] T[D] W[D] P[D] T[D] M[D]] | – | Kd (Anxa1; QCM method, dTIT7 and Anxa1, read-out: dissociation constant (Kd value)): 0.0457 µM
CC(C)C[C@@H](N)C(=O)N[C@H](CC(C)C)C(=O)N[C@H](CO)C(=O)N[C@H](Cc1c[nH]c2ccccc12)C(=O)N1CCC[C@@H]1C(=O)N[C@H](CO)C(=O)N[C@H](C)C(=O)O [dLLS7, L[D] L[D] S[D] W[D] P[D] S[D] A[D]] (H-[dL][dL][dS][dW][dP][dS][dA]-OH; N-terminus and C-terminus assumed) | 0.0542 | –
CC[C@H](C)[C@H](N)C(=O)N[C@@H](Cc1ccccc1)C(=O)N[C@@H](CC(C)C)C(=O)N[C@@H](CC(C)C)C(=O)N[C@@H](Cc1c[nH]c2ccccc12)C(=O)N[C@@H](CCC(N)=O)C(=O)N[C@@H](CCCNC(=N)N)C(=O)O [IF7, IFLLWQR] (H-IFLLWQR-OH; N-terminus and C-terminus assumed) | – | solubility [1]: poor solubility; stability ([1]; protease sensitivity): low stability
